From ChEMBL document CHEMBL5055672, “Design, Synthesis, Biological Evaluation, and Computational Studies of Novel Fluorinated Candidates as PI3K Inhibitors: Targeting Fluorophilic Binding Sites” (J Med Chem, 2021)
pIC50: −log10 of the molar value.

Legend:
[1] = test system: UACC-257; experiment: Cytotoxicity against human UACC-257 cells assessed as growth inhibition at 10 uM after 48 hrs by sulforhodamine B assay; type: functional; conditions: read-out: GI
[2] = test system: UO-31; experiment: Cytotoxicity against human UO-31 cells assessed as growth inhibition at 10 uM after 48 hrs by sulforhodamine B assay; type: functional; conditions: read-out: GI
[3] = test system: MCF7; experiment: Cytotoxicity against human MCF7 cells assessed as growth inhibition at 10 uM after 48 hrs by sulforhodamine B assay; type: functional; conditions: read-out: GI
[4] = test system: MCF-10A; experiment: Cytotoxicity against human MCF10A cells assessed as inhibition of cell growth incubated for 48 hrs by MTT assay; type: cell-based
[5] = test system: CCRF-CEM; experiment: Cytotoxicity against human CCRF-CEM cells assessed as growth inhibition at 10 uM after 48 hrs by sulforhodamine B assay; type: functional; conditions: read-out: GI
[6] = test system: K562; experiment: Cytotoxicity against human K562 cells assessed as growth inhibition at 10 uM after 48 hrs by sulforhodamine B assay; type: functional; conditions: read-out: GI
[7] = test system: MOLT-4; experiment: Cytotoxicity against human MOLT-4 cells assessed as growth inhibition at 10 uM after 48 hrs by sulforhodamine B assay; type: functional; conditions: read-out: GI
[8] = test system: SR; experiment: Cytotoxicity against human SR cells assessed as growth inhibition at 10 uM after 48 hrs by sulforhodamine B assay; type: functional; conditions: read-out: GI
[9] = test system: HOP-62; experiment: Cytotoxicity against human HOP-62 cells assessed as growth inhibition at 10 uM after 48 hrs by sulforhodamine B assay; type: functional; conditions: read-out: GI
[10] = test system: SF-268; experiment: Cytotoxicity against human SF-268 cells assessed as growth inhibition at 10 uM after 48 hrs by sulforhodamine B assay; type: functional; conditions: read-out: GI
[11] = test system: SF-539; experiment: Cytotoxicity against human SF-539 cells assessed as growth inhibition at 10 uM after 48 hrs by sulforhodamine B assay; type: functional; conditions: read-out: GI
[12] = test system: SNB-19; experiment: Cytotoxicity against human SNB-19 cells assessed as growth inhibition at 10 uM after 48 hrs by sulforhodamine B assay; type: functional; conditions: read-out: GI
[13] = test system: U-251; experiment: Cytotoxicity against human U-251 cells assessed as growth inhibition at 10 uM after 48 hrs by sulforhodamine B assay; type: functional; conditions: read-out: GI
[14] = test system: UACC-62; experiment: Cytotoxicity against human UACC-62 cells assessed as growth inhibition at 10 uM after 48 hrs by sulforhodamine B assay; type: functional; conditions: read-out: GI
[15] = test system: CAKI-1; experiment: Cytotoxicity against human CAKI-1 cells assessed as growth inhibition at 10 uM after 48 hrs by sulforhodamine B assay; type: functional; conditions: read-out: GI
[16] = test system: MDA-MB-231; experiment: Cytotoxicity against human MDA-MB-231 cells assessed as growth inhibition at 10 uM after 48 hrs by sulforhodamine B assay; type: functional; conditions: read-out: GI
[17] = Cytotoxicity against human Hs 578T cells assessed as growth inhibition at 10 uM after 48 hrs by sulforhodamine B assay; type: functional; conditions: read-out: GI
[18] = test system: HL-60(TB); experiment: Cytotoxicity against human HL-60(TB) cells assessed as growth inhibition at 10 uM after 48 hrs by sulforhodamine B assay; type: functional; conditions: read-out: GI
[19] = test system: A549; experiment: Cytotoxicity against human A549 cells assessed as growth inhibition at 10 uM after 48 hrs by sulforhodamine B assay; type: functional; conditions: read-out: GI
[20] = test system: HOP-92; experiment: Cytotoxicity against human HOP-92 cells assessed as growth inhibition at 10 uM after 48 hrs by sulforhodamine B assay; type: functional; conditions: read-out: GI
[21] = test system: NCI-H23; experiment: Cytotoxicity against human NCI-H23 cells assessed as growth inhibition at 10 uM after 48 hrs by sulforhodamine B assay; type: functional; conditions: read-out: GI
[22] = test system: HCT-116; experiment: Cytotoxicity against human HCT-116 cells assessed as growth inhibition at 10 uM after 48 hrs by sulforhodamine B assay; type: functional; conditions: read-out: GI
[23] = test system: SF-295; experiment: Cytotoxicity against human SF-295 cells assessed as growth inhibition at 10 uM after 48 hrs by sulforhodamine B assay; type: functional; conditions: read-out: GI
[24] = test system: SNB-75; experiment: Cytotoxicity against human SNB-75 cells assessed as growth inhibition at 10 uM after 48 hrs by sulforhodamine B assay; type: functional; conditions: read-out: GI
[25] = test system: LOX IMVI; experiment: Cytotoxicity against human LOX IMVI cells assessed as growth inhibition at 10 uM after 48 hrs by sulforhodamine B assay; type: functional; conditions: read-out: GI
[26] = test system: OVCAR-8; experiment: Cytotoxicity against human OVCAR8 cells assessed as growth inhibition at 10 uM after 48 hrs by sulforhodamine B assay; type: functional; conditions: read-out: GI
[27] = test system: NCI/ADR-RES; experiment: Cytotoxicity against human NCI-ADR-RES cells assessed as growth inhibition at 10 uM after 48 hrs by sulforhodamine B assay; type: functional; conditions: read-out: GI
[28] = test system: 786-0; experiment: Cytotoxicity against human 786-0 cells assessed as growth inhibition at 10 uM after 48 hrs by sulforhodamine B assay; type: functional; conditions: read-out: GI
[29] = test system: ACHN; experiment: Cytotoxicity against human ACHN cells assessed as growth inhibition at 10 uM after 48 hrs by sulforhodamine B assay; type: functional; conditions: read-out: GI
[30] = test system: SN12C; experiment: Cytotoxicity against human SN12C cells assessed as growth inhibition at 10 uM after 48 hrs by sulforhodamine B assay; type: functional; conditions: read-out: GI
[31] = test system: BT-549; experiment: Cytotoxicity against human BT-549 cells assessed as growth inhibition at 10 uM after 48 hrs by sulforhodamine B assay; type: functional; conditions: read-out: GI
[32] = test system: T47D; experiment: Cytotoxicity against human T47D cells assessed as growth inhibition at 10 uM after 48 hrs by sulforhodamine B assay; type: functional; conditions: read-out: GI
[33] = test system: MDA-MB-468; experiment: Cytotoxicity against human MDA-MB-468 cells assessed as growth inhibition at 10 uM after 48 hrs by sulforhodamine B assay; type: functional; conditions: read-out: GI
[34] = test system: NCI-H522; experiment: Cytotoxicity against human NCI-H522 cells assessed as growth inhibition at 10 uM after 48 hrs by sulforhodamine B assay; type: functional; conditions: read-out: GI
[35] = test system: MCF7; experiment: Antiproliferative activity against human MCF7 cells assessed as inhibition of cell growth incubated for 48 hrs by MTT assay; type: functional, cell-based; conditions: MCF7, 48 h
[36] = Selectivity index, ratio of IC50 for human MCF-10A cells to IC50 for human MCF7 cells; type: toxicity; conditions: MCF-10A cells versus MCF7 cells, read-out: Ratio IC50
[37] = test system: EKVX; experiment: Cytotoxicity against human EKVX cells assessed as growth inhibition at 10 uM after 48 hrs by sulforhodamine B assay; type: functional; conditions: read-out: GI

In the case of `O=S(=O)(Oc1ccc(/C=N/NC(=S)Nc2ccccc2)cc1)C(F)(F)C(F)(F)C(F)(F)C(F)(F)F`, the inhibition of growth at 10 µM [1] was 14.3%, the inhibition of growth at 10 µM [2] was 11.8% and the inhibition of growth at 10 µM [3] was 14.2%.

For `COc1cccc2c1C(=O)c1c(O)c3c(c(O)c1C2=O)C[C@@](O)(C(=O)CO)C[C@@H]3O[C@H]1C[C@H](N)[C@H](O)[C@H](C)O1` [DOXORUBICIN], the pIC50 [4] was 4.72.

`COC(=O)/C=C1\S/C(=N\N=C\c2ccc(OS(=O)(=O)C(F)(F)C(F)(F)C(F)(F)C(F)(F)C(F)(F)C(F)(F)F)cc2)N(c2ccccc2)C1=O` showed an inhibition of growth at 10 µM [5] of 22.7%, an inhibition of growth at 10 µM [6] of 39% and an inhibition of growth at 10 µM [7] of 13.4%. It also gave an inhibition of growth at 10 µM [8] of 32.7%, an inhibition of growth at 10 µM [9] of 13.1% and an inhibition of growth at 10 µM [10] of 10.4%. For the same compound, the inhibition of growth at 10 µM [11] was 13.7%, the inhibition of growth at 10 µM [12] was 26.4% and the inhibition of growth at 10 µM [13] was 10.4%. It also gave an inhibition of growth at 10 µM [14] of 17.6%, an inhibition of growth at 10 µM [15] of 28% and an inhibition of growth at 10 µM [16] of 12.8%. The inhibition of growth at 10 µM [17] was 23.7%.

`COC(=O)/C=C1\S/C(=N\N=C\c2ccc(C(F)(F)F)cc2)N(c2ccccc2)C1=O` showed an inhibition of growth at 10 µM [18] of 16.7%, an inhibition of growth at 10 µM [6] of 21.4% and an inhibition of growth at 10 µM [7] of 12.8%. The inhibition of growth at 10 µM [8] was 19.6%, the inhibition of growth at 10 µM [19] was 12.4% and the inhibition of growth at 10 µM [9] was 36.6%. It also gave an inhibition of growth at 10 µM [20] of 12%, an inhibition of growth at 10 µM [21] of 10.1% and an inhibition of growth at 10 µM [22] of 32.4%. It also gave an inhibition of growth at 10 µM [10] of 19.8%, an inhibition of growth at 10 µM [23] of 16.6% and an inhibition of growth at 10 µM [11] of 21%. It also gave an inhibition of growth at 10 µM [12] of 25.8%, an inhibition of growth at 10 µM [24] of 39.3% and an inhibition of growth at 10 µM [13] of 29.2%. The inhibition of growth at 10 µM [25] was 19.9%, the inhibition of growth at 10 µM [14] was 18.4% and the inhibition of growth at 10 µM [26] was 26.6%. For the same compound, the inhibition of growth at 10 µM [27] was 11.5%, the inhibition of growth at 10 µM [28] was 11.1% and the inhibition of growth at 10 µM [29] was 40.1%. For the same compound, the inhibition of growth at 10 µM [15] was 28%, the inhibition of growth at 10 µM [30] was 24.1% and the inhibition of growth at 10 µM [2] was 18.3%. It also gave an inhibition of growth at 10 µM [3] of 25.2%, an inhibition of growth at 10 µM [16] of 19.8% and an inhibition of growth at 10 µM [17] of 37.6%. The inhibition of growth at 10 µM [31] was 13.6%, the inhibition of growth at 10 µM [32] was 20.4% and the inhibition of growth at 10 µM [33] was 24.6%.

For `O=S(=O)(Oc1ccc(/C=N/NC(=S)Nc2ccccc2)cc1)C(F)(F)C(F)(F)C(F)(F)C(F)(F)C(F)(F)C(F)(F)C(F)(F)C(F)(F)F`, the inhibition of growth at 10 µM [34] was 10.1% and the inhibition of growth at 10 µM [2] was 13.3%.

With `FC(F)(F)c1ccc(/C=N/N=c2\scc(-c3ccccc3)n2-c2ccccc2)cc1` the inhibition of growth at 10 µM [3] was 41.1%.

`COc1cc([C@@H]2c3cc4c(cc3[C@@H](O[C@@H]3O[C@@H]5CO[C@@H](C)O[C@H]5[C@H](O)[C@H]3O)[C@H]3COC(=O)[C@H]23)OCO4)cc(OC)c1O` [ETOPOSIDE] gave a pIC50 [35] of 4.90, a pIC50 [4] of 4.07 and a selectivity ratio [36] of 3.86.

`O=S(=O)(Oc1ccc(-c2nnc(Nc3ccccc3)s2)cc1)C(F)(F)C(F)(F)C(F)(F)C(F)(F)C(F)(F)C(F)(F)F` showed an inhibition of growth at 10 µM [18] of 29.4%, an inhibition of growth at 10 µM [8] of 80.5% and an inhibition of growth at 10 µM [16] of 13.1%.

With `FC(F)(F)c1ccc(/C=N/NC(=S)Nc2ccccc2)cc1` the inhibition of growth at 10 µM [37] was 10.3%.
